Values of other authors in patent publication US20140080846A1, “Method of treating orphan respiratry diseases using doxofylline” (priority 2012, published 2014).

Key:
[1] = for subjects dropped out of the study due to side effects: large randomized clinical study, 12 week testing period, asthma patients
[2] = intravenous, CF patients

Structure (SMILES) | efficacy in treating chronic asthma ([1]; compared to theophylline) | subjects dropped out of the study due to side effects [1] [%] | effect on Forced Expiratory Volume at 1 second (FEV1) and Forced Expiratory Flow at 0.75 seconds (FEF 0.75) [2] | patients treated in an emergency setting for overdose who die
Cn1c(=O)c2c(ncn2CC2OCCO2)n(C)c1=O [doxofylline, 7-(1,3-dioxolan-2-ylmethyl)-1,3-dimethylpurine-2,6-dione] | as effective as theophylline | 11 |  | 
Cn1c(=O)c2[nH]cnc2n(C)c1=O [theophylline] |  | 31 | positive results | Ten
